# Values quoted from earlier work in patent publication US20090196894A1, “Self Tanning Composition” (priority 2006, published 2009).
# Details: over the entire pH range, among the investigated hydroxyflavones
smiles,measurement,value
"O=c1c(O)c(-c2ccc(O)c(O)c2)oc2cc(O)cc(O)c12 [quercetin, 3,3′,4′,5,7-pentahydrooxyflavone]",antioxidative effect,highest activity
